Laboratory results as given in US5106856A, “[(Arylalkylpiperidin-4-yl)methyl]-2a,3,4,5-tetrahydro- 1(2H)-acenaphthylen-1-ones and related compounds” (priority 1991, dated 1992).
Where a name gives a salt, the structure may show the parent alone.

Columns and labels:
[1] = system: Scopolamine Induced Memory Deficit; assay: Dark Avoidance Assay (reversal of scopolamine induced memory deficit); format: in vivo; details: mice, s.c., tested again 24 hours later
Experimental: In this assay mice are tested for their ability to remember an unpleasant stimulus for a period of 24 hours. A mouse is placed in a chamber that contains a dark compartment; a strong incandescent light drives it to the dark compartment, where an electric shock is administered through metal plates on the floor. The animal is removed from the testing apparatus and tested again, 24 hours later, for the ability to remember the electric shock.
If scopolamine, an anticholinergic that is known to cause memory impairment, is administered before an animal's initial exposure to the test chamber, the animal re-enters the dark compartment shortly after being placed in the test chamber 24 hours later. This effect of scopolamine is blocked by an active test compound, resulting in a greater interval before re-entry into the dark compartment.
The results for an active compound are expressed as the percent of a group of animals in which the effect of scopolamine is blocked, as manifested by an increased interval between being placed in the test chamber and re-entering the dark compartment.
Results of this assay for some of the compounds of this invention and those for tacrine and pilocarpine (reference compounds) are presented in Table 2.

[2] = molecular target: T1, Brain AChE (acetylcholinesterase, rat striatum) (Rattus norvegicus, UniProt P37136); assay: In vitro inhibition of acetylcholinesterase activity in rat striatum; format: biochemical, rat (male Wistar); details: read-out: Inhibitory Concentration, Brain AChE
T1 construct: corpora striata dissected free, weighed and homogenized in 19 volumes; from tissue; host or cells: corpus striatum homogenate of male Wistar rats
T1 sequence (P37136 32-614): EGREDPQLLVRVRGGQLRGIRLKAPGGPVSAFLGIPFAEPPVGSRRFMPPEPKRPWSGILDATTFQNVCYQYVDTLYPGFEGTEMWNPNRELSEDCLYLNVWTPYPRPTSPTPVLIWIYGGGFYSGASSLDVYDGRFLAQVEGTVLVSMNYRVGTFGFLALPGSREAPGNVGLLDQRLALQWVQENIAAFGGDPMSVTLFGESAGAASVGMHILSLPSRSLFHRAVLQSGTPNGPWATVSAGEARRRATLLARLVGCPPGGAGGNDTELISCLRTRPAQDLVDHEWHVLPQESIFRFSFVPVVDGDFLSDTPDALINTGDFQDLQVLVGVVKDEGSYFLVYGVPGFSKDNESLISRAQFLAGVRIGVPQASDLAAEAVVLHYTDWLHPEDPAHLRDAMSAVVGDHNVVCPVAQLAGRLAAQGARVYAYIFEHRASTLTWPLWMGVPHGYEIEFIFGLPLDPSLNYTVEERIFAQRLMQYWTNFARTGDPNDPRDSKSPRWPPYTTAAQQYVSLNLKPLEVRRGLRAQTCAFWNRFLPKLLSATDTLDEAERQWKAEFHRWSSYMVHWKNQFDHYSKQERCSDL
Experimental: Cholinesterases are found throughout the body, both in the brain and in serum. However, only brain acetylcholinesterase (AChE) distribution is correlated with central cholinergic innervation.
The method described below was used in this invention for assaying cholinesterase activity.
4. A 2 mM stock solution of the test drug is made up in a suitable solvent and q.s. to volume with 0.5 mM DTNB (reagent 3). Drugs are serially diluted (1:10) such that the final concentration (in cuvette) is 10^-4 M and screened for activity. If active, IC50 values are determined from the inhibitory activity of subsequent concentrations.
Male Wistar rats are decapitated, brains rapidly removed, corpora striata dissected free, weighed and homogenized in 19 volumes (approximately 7 mg protein/ml) of 0.05M phosphate buffer, pH 7.2 using a Potter-Elvehjem homogenizer. A 25 microliter aliquot of the homogenate is added to 1.0 milliter vehicle or various concentrations of the test drug and preincubated for 10 minutes at 37° C.
Enzyme activity is measured with the Beckman DU-50 spectrophotometer. This method can be used for IC50 determinations and for measuring kinetic constants.
Substrate concentration is 10 mM diluted 1:2 in assay yielding final concentration of 5 mM. DTNB concentration is 0.5 mM yielding 0.25 mM final concentration. [formula]
IC50 values are calculated from log-probit analysis.

CC[C@@H]1C(=O)OC[C@@H]1Cc1cncn1C [Pilocarpine, reference compound]
% of Animals with Scopolamine Induced Memory Deficit Reversal ([1]; 5 mg/kg of body weight): 23%

O=C1c2cccc3c2C(CCC3)C1CC1CCN(Cc2cccc(F)c2)CC1 (stereo not shown) [2-[[N-(3-Fluorobenzyl)piperidin-4-yl]methyl]-2a,3,4,5-tetrahydro-1(2H)-acenaphthylen-1-one hydrochloride]
% of Animals with Scopolamine Induced Memory Deficit Reversal ([1]; 0.1 mg/kg of body weight): 20% | IC50 [2]: 4100 nM

O=C1c2cccc3c2C(CCC3)C1CC1CCN(Cc2ccccc2)CC1 (stereo not shown) [2-[(N-Benzylpiperidin-4-yl)methyl]-2a,3,4,5-tetrahydro-1(2H)-acenaphthylen-1-one hydrochloride]
IC50 [2]: 1020 nM
